{
  "source": "patent US10493131B2",
  "about": "“Materials and methods for modulating activity of bone marrow derived cells” (University of Florida Research Foundation, Incorporated, priority 2011, dated 2019)",
  "key": {"CD34+ BMDEC [1]": {"test_system": "CD34+ BMDEC", "test": "SDF-1/Relaxin induced chemotaxis (Boyden chamber)", "type": "cell-based, human", "details": "10 μM L-NAME", "experimental": "Isolation of CD34+ BMDEC. The study protocol was approved by the Institutional Review Board of the University of Florida, and written informed consent was obtained from each subject. Blood was collected from healthy controls by routine venipuncture into CPT™ Tubes with heparin (BD Biosciences, Franklin Lakes, N.J.), centrifuged at room temperature in a swinging bucket rotor for 20 minutes at 1800 RCF, the peripheral blood mononuclear cells (PBMCs) diluted with phosphate buffered saline supplemented with 2 mM EDTA (PBSE) and centrifuged for 10 minutes at 300 RCF. After washing the cell pellet, centrifugation was repeated. 3.3×10^7 PBMCs were resuspended in 100 μl of PBSE to which 33 μl of FcR blocking reagent (Miltenyi Biotec Inc., Auburn, Calif.) and 33 μl of magnetic microbeads conjugated with an anti-CD34 antibody was added. After incubation for 30 minutes at 4° C., the cells were diluted in 10× the volume of PBSE supplemented with 0.1% bovine serum albumin. The CD34+ BMDEC were positively selected using an automated magnetic selection autoMACS™ (Miltenyi Biotec Inc., Auburn, Calif.). […] After 4.5 hours at 5% CO2 at 37° C., the percentage of cells that migrated was determined by collecting the media in the lower chamber and determining the relative fluorescence using a Synergy™ HT (Bio-Tek Instruments, Inc., Winooski, Vt.) with an excitation of 485±20 and an emission of 528±20 nm. […]"}, "CD34+ BMDEC [2]": {"test_system": "CD34+ BMDEC", "test": "Detection of nitric oxide (NO) produced by cells (DAF-FM fluorescence)", "type": "cell-based, human", "details": "pretreatment with MK2206 20 nM 30 minutes; 50 ng/ml rhRLX", "experimental": "Isolation of CD34+ BMDEC. The study protocol was approved by the Institutional Review Board of the University of Florida, and written informed consent was obtained from each subject. Blood was collected from healthy controls by routine venipuncture into CPT™ Tubes with heparin (BD Biosciences, Franklin Lakes, N.J.), centrifuged at room temperature in a swinging bucket rotor for 20 minutes at 1800 RCF, the peripheral blood mononuclear cells (PBMCs) diluted with phosphate buffered saline supplemented with 2 mM EDTA (PBSE) and centrifuged for 10 minutes at 300 RCF. After washing the cell pellet, centrifugation was repeated. […]\nDetection of Nitric Oxide (NO) produced by cells. […] Bioavailable NO was determined as previously described (Shah, R., Beem, E., Sautina, L., Zharikov, S. I., and Segal, M. S. 2007. Mitomycin- and calcineurin-associated HUS, endothelial dysfunction and endothelial repair: a new paradigm for the puzzle? Nephrol Dial Transplant 22:617-620). […] DAF-FM fluorescence increases by about 160-fold when it reacts with NO. Green fluorescence was measured using the inverted fluorescent Carl Zeiss Axiovert 200M microscope equipped with a CCD camera and Slidebook software (v.4.1; Intelligent Imaging Innovations, Inc. Denver, Colo.). Fluorescence intensity was measured in 20-30 cells per field in at least 6 fields per well. […]"}},
  "data": [
    {"compound": "COC(=O)[C@@H](N)CCCNC(=N)N[N+](=O)[O-]", "note": "[L-NAME, L—N^G-nitroarginine methy ester]", "values": [
      {"measurement": "effect on basal level of migration", "setting": "CD34+ BMDEC [1]", "value": "unaffected"},
      {"measurement": "effect on relaxin-stimulated chemotaxis", "setting": "CD34+ BMDEC [1]; 50 ng/ml rhRLX", "value": "blocked"}
    ]},
    {"compound": "NC1(c2ccc(-c3nc4ccn5c(=O)[nH]nc5c4cc3-c3ccccc3)cc2)CCC1", "note": "[MK2206]", "values": [
      {"measurement": "effect on rhRLX stimulation of NO", "setting": "CD34+ BMDEC [2]", "value": "prevented"}
    ]}
  ]
}
